Tests used:
[1] = system: velvetleaf (Abutilon theophrasti); test: Preemergence herbicidal activity; assay type: in vivo; details: pre-emergent, 140 g ai/ha, after 20-22 days
Method in brief: (§1)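 Seeds sown in 70:30 loam (pH about 8.1, about 1.5% organic matter) and sand mix, then sprayed preemergence at 187 L/ha with a track sprayer; controls received solvent blank. Pots kept in greenhouse, about 15 h photoperiod, about 23-29° C. day and 22-28° C. night, top-irrigated.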

[2] = system: lambsquarter (Chenopodium album); test: Preemergence herbicidal activity; assay type: in vivo; details: pre-emergent, 140 g ai/ha, after 20-22 days
Method in brief: as §1

[3] = system: redroot pigweed (Amaranthus retroflexus); test: Preemergence herbicidal activity; assay type: in vivo; details: pre-emergent, 140 g ai/ha, after 20-22 days
Method in brief: as §1

Galium aparine = test: Postemergence herbicidal activity in cereal crops; assay type: in vivo; details: post-emergent, after 20-22 days; for pest or weed control at 17.5 g/ha: 17.5 g ai/ha
Method: (§2) When required to ensure good germination and healthy plants, a fungicide treatment and/or other chemical or physical treatment was applied. The plants were grown for 7-36 days in a greenhouse with an approximate 14 hour photoperiod which was maintained at about 18° C. during the day and 17° C. during the night. Nutrients and water were added on a regular basis and supplemental lighting was provided with overhead metal halide 1000-Watt lamps as necessary. The plants were employed for testing when they reached the second or third true leaf stage. […] The concentrated stock solutions obtained were diluted with 16 mL of an aqueous mixture containing acetone, water, isopropyl alcohol, DMSO, Agri-dex crop oil concentrate, and Triton® X-77 surfactant in a 64.7:26.0:6.7:2.0:0.7:0.01 v/v ratio to obtain spray solutions containing the highest application rates. […] Compound requirements are based upon a 12 mL application volume at a rate of 187 L/ha. Formulated compounds were applied to the plant material with an overhead Mandel track sprayer equipped with a […] nozzles calibrated to deliver 187 L/ha over an application area of 0.503 square meters at a spray height of 18 inches (43 cm) above average plant canopy height. Control plants were sprayed in the same manner with the blank. The treated plants and control plants were placed in a greenhouse as described above and watered by sub-irrigation to prevent wash-off of the test compounds.

Papaver rhoeas = test: Postemergence herbicidal activity in cereal crops; assay type: in vivo; details: post-emergent, after 20-22 days; for pest or weed control at 17.5 g/ha: 17.5 g ai/ha
Method: as §2

Lamium purpureum = test: Postemergence herbicidal activity in cereal crops; assay type: in vivo; details: post-emergent, after 20-22 days; for pest or weed control at 17.5 g/ha: 17.5 g ai/ha
Method: as §2

[4] = system: wheat (Triticum aestivum); test: Postemergence herbicidal activity in cereal crops; assay type: in vivo; details: crop, post-emergent, after 20-22 days; for plant injury at 17.5 g/ha: 17.5 g ai/ha
Method: as §2

barley (Hordeum vulare) = test: Postemergence herbicidal activity in cereal crops; assay type: in vivo; details: crop, post-emergent, after 20-22 days; for pest or weed control at 17.5 g/ha: 17.5 g ai/ha
Method: as §2

Veronica persica = test: Postemergence herbicidal activity in cereal crops; assay type: in vivo; details: post-emergent, after 20-22 days; for pest or weed control at 17.5 g/ha: 17.5 g ai/ha
Method: as §2

[5] = system: velvetleaf (Abutilon theophrasti); test: Postemergence herbicidal activity; assay type: in vivo; details: post-emergent, 140 g ai/ha, after 14 days; for pest or weed control at 140 g/ha: Abutilon theophrasti, post-emergence, 336 h, read-out: % Control ABUTH
Method in brief: (§3)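 Plants grown 7-21 days in greenhouse (about 15 h photoperiod, 23-29° C day, 22-28° C night) to first or second true leaf stage. Compounds in acetone/water/isopropanol/DMSO carrier with crop oil concentrate and Triton X-155 sprayed overhead at 187 L/ha; controls received solvent blank. Plants sub-irrigated afterwards; dose responses analysed by probit analysis.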

[6] = system: lambsquarter (Chenopodium album); test: Postemergence herbicidal activity; assay type: in vivo; details: post-emergent, 140 g ai/ha, after 14 days; for pest or weed control at 140 g/ha: Chenopodium album, post-emergence, 336 h, read-out: % Control CHEAL
Method in brief: as §3

[7] = system: redroot pigweed (Amaranthus retroflexus); test: Postemergence herbicidal activity; assay type: in vivo; details: post-emergent, 140 g ai/ha, after 14 days; for pest or weed control at 140 g/ha: Amaranthus retroflexus, post-emergence, 336 h, read-out: % Control AMARE
Method in brief: as §3

[8] = Galium aparine, post-emergence, 480 h, read-out: % Control GALAP
[9] = Papaver rhoeas, post-emergence, 480 h, read-out: % Control PAPRH
[10] = Lamium purpureum, post-emergence, 480 h, read-out: % Control LAMPU
[11] = Triticum aestivum, post-emergence, 480 h, read-out: % Control TRZAS
[12] = Hordeum, post-emergence, 480 h, read-out: % Control HORVS
[13] = Veronica persica, post-emergence, 480 h, read-out: % Control VERPE
[14] = Galium aparine, post-emergence, 480 h, 35 g ai/ha, read-out: % Control GALAP
[15] = Papaver rhoeas, post-emergence, 480 h, 35 g ai/ha, read-out: % Control PAPRH
[16] = Lamium purpureum, post-emergence, 480 h, 35 g ai/ha, read-out: % Control LAMPU
[17] = Triticum aestivum, post-emergence, 480 h, 35 g ai/ha, read-out: % Control TRZAS
[18] = Hordeum, post-emergence, 480 h, 35 g ai/ha, read-out: % Control HORVS
[19] = Veronica persica, post-emergence, 480 h, 35 g ai/ha, read-out: % Control VERPE

Row | Compound | melting point | pest or weed control at 17.5 g/ha (Galium aparine; [8]) | pest or weed control at 17.5 g/ha (Papaver rhoeas; [9]) | pest or weed control at 17.5 g/ha (Lamium purpureum; [10]) | plant injury at 17.5 g/ha [4, 11] | pest or weed control at 17.5 g/ha (barley (Hordeum vulare); [12]) | pest or weed control at 17.5 g/ha (Veronica persica; [13]) | pest or weed control at 140 g/ha [5] | pest or weed control at 140 g/ha [6] | pest or weed control at 140 g/ha [7] | also measured
1 | COC(=O)c1nc(-c2ccc(Cl)c(SC)c2F)cc(N)c1Cl [Compound 1] | – | – | – | – | – | – | – | – | – | – | % Control ABUTH [1]: 80%; % Control CHEAL [2]: 90%; % Control AMARE [3]: 100%; % Control GALAP (Galium aparine; 35 g ai/ha): 85%; % Control PAPRH (Papaver rhoeas; 35 g ai/ha): 80%; % Control LAMPU (Lamium purpureum; 35 g ai/ha): 80%; % Control TRZAS ([4]; 35 g ai/ha): 5%; % Control HORVS (barley (Hordeum vulare); 35 g ai/ha): 10%; % Control VERPE (Veronica persica; 35 g ai/ha): 50%; % Control ABUTH [5]: 85%; % Control CHEAL [6]: 100%; % Control AMARE [7]: 100%
2 | COC(=O)c1nc(-c2ccc(C(F)(F)F)c(OC)c2F)cc(N)c1Cl [Compound 45, 4-Amino-3-chloro-6-(2-fluoro-3-methoxy-4-trifluoromethylphenyl)pyridine-2-carboxylic acid methyl ester] | 144 to 146 °C | 90% | 90% | 100% | 0% | 0% | 80% | 100% | 95% | 80% | –
3 | COC(=O)c1nc(-c2c(F)cc(C)c(OC)c2F)cc(N)c1Cl [Compound 51, 4-Amino-3-chloro-6-(2,6-difluoro-3-methoxy-4-methylphenyl)pyridine-2-carboxylic acid, methyl ester] | – | – | – | – | – | – | – | 100% | 100% | 100% | pest or weed control at 35 g/ha (Galium aparine; [14]): 95%; pest or weed control at 35 g/ha (Papaver rhoeas; [15]): 100%; pest or weed control at 35 g/ha (Lamium purpureum; [16]): 70%; plant injury at 35 g/ha [4, 17]: 0%; pest or weed control at 35 g/ha (barley (Hordeum vulare); [18]): 0%; pest or weed control at 35 g/ha (Veronica persica; [19]): 30%
4 | COC(=O)c1nc(-c2c(F)cc(F)c(OC)c2F)cc(N)c1Cl [Compound 56, 4-Amino-3-chloro-6-(2,4,6-trifluoro-3-methyoxyphenyl)pyridine-2-carboxylic acid, methyl ester] | – | – | – | – | – | – | – | – | – | – | % Control GALAP (Galium aparine; 70 g ai/ha): 100%; % Control PAPRH (Papaver rhoeas; 70 g ai/ha): 100%; % Control LAMPU (Lamium purpureum; 70 g ai/ha): 99%; % Control TRZAS ([4]; 70 g ai/ha): 0%; % Control HORVS (barley (Hordeum vulare); 70 g ai/ha): 10%; % Control VERPE (Veronica persica; 70 g ai/ha): 95%; % Control ABUTH [5]: 100%; % Control CHEAL [6]: 100%; % Control AMARE [7]: 100%
5 | COC(=O)c1nc(-c2ccc(Cl)c(C(F)C(F)(F)F)c2F)cc(N)c1Cl (stereo not drawn) [Compound 65, 4-Amino-3-chloro-6-[4-chloro-2-fluoro-3-(1,2,2,2-tetrafluoroethyl)phenyl)-pyridine-2-carboxylic acid, methyl ester] | – | – | – | – | – | – | – | 95% | 90% | 100% | pest or weed control at 35 g/ha (Galium aparine; [14]): 85%; pest or weed control at 35 g/ha (Papaver rhoeas; [15]): 90%; pest or weed control at 35 g/ha (Lamium purpureum; [16]): 95%; plant injury at 35 g/ha [4, 17]: 15%; pest or weed control at 35 g/ha (barley (Hordeum vulare); [18]): 5%; pest or weed control at 35 g/ha (Veronica persica; [19]): 40%
6 | COC(=O)c1nc(-c2ccc(C(F)F)c(OC)c2F)cc(N)c1Cl [Compound 71, 4-Amino-3-chloro-6-(4-difluoromethyl-2-fluoro-3-methoxyphenyl)pyridine-2-carboxylic acid, methyl ester] | 145 to 147 °C | 95% | 95% | 95% | 0% | 0% | 50% | 100% | 85% | 80% | –
7 | COC(=O)c1nc(-c2cc(OC)c(F)cc2F)cc(N)c1Cl [Compound 73, 4-Amino-3-chloro-6-(2,4-difluoro-5-methoxyphenyl)pyridine-2-carboxylic acid, methyl ester] | 128 to 130 °C | – | – | – | – | – | – | 90% | 100% | 100% | pest or weed control at 70 g/ha (Galium aparine; Galium aparine, post-emergence, 480 h, 70 g ai/ha, read-out: % Control GALAP): 95%; pest or weed control at 70 g/ha (Papaver rhoeas; Papaver rhoeas, post-emergence, 480 h, 70 g ai/ha, read-out: % Control PAPRH): 95%; pest or weed control at 70 g/ha (Lamium purpureum; Lamium purpureum, post-emergence, 480 h, 70 g ai/ha, read-out: % Control LAMPU): 99%; plant injury at 70 g/ha ([4]; Triticum aestivum, post-emergence, 480 h, 70 g ai/ha, read-out: % Control TRZAS): 0%; pest or weed control at 70 g/ha (barley (Hordeum vulare); Hordeum, post-emergence, 480 h, 70 g ai/ha, read-out: % Control HORVS): 0%; pest or weed control at 70 g/ha (Veronica persica; Veronica persica, post-emergence, 480 h, 70 g ai/ha, read-out: % Control VERPE): 60%
8 | CCCCOCCOC(=O)c1nc(-c2ccc(Cl)c(OC)c2F)cc(N)c1Cl [Compound 87, 4-Amino-3-chloro-6-(4-chloro-2-fluoro-3-methoxyphenyl)pyridine-2-carboxylic acid, 2-butoxy-ethyl ester] | – | 100% | 100% | 100% | 0% | 0% | 50% | 100% | 100% | 100% | –

From patent US20070179060A1, “6-(Poly-substituted aryl)-4-aminopicolinates and their use as herbicides” (priority 2006, published 2007)
